From publication PMC10511702, “Design, molecular modelling and synthesis of novel benzothiazole derivatives as BCL-2 inhibitors” (Scientific Reports, 2023)

Legend:
NCI leukemia cell line = test: NCI in vitro anti-proliferative screen, leukemia panel as a whole; assay type: cell-based, human; settings: single dose of 10 µM
Protocol: (§1) The national cancer institute (NCI) in vitro anticancer screening is a two-stage process, beginning with the evaluation of the selected compounds 13c and 13d against NCI leukemia cell line at a single dose of 10 µM. The human leukemia cell line was obtained and maintained at the NCI. The output from the single dose screen is reported as a mean graph. The detailed assay protocol is discussed in the supporting material.
This assay was performed for compounds 13c and 13d by the Developmental Therapeutics Program (DTP) of the National Cancer Institute (NCI), division of cancer treatment and diagnosis, NIH, Bethesda, Maryland, USA (www.dtp.nci.nih.gov). The operation of this screen utilizes leukemia human tumor cell line[37]. […]
Results for the two compounds were reported as a mean graph of the percent growth of the treated cells when compared to the untreated control cells. The results are expressed as cell growth percent for the tested compounds on each of the used NCI cell line panels. […]
Following drug addition, the plates are incubated for an additional 48 hrs at 37°C, 5 % CO2, 95 % air, and 100 % relative humidity. […] Bound stain is subsequently solubilized with 10 mMtrizma base, and the absorbance is read on an automated plate reader at a wavelength of 515 nm. […]

K-562 = test: NCI in vitro anti-proliferative single dose screen; assay type: cell-based, human; settings: K-562, single dose of 10 µM
Protocol: as §1
(§2) This assay was performed for compounds 13c and 13d by the Developmental Therapeutics Program (DTP) of the National Cancer Institute (NCI), division of cancer treatment and diagnosis, NIH, Bethesda, Maryland, USA (www.dtp.nci.nih.gov). The operation of this screen utilizes leukemia human tumor cell line[37]. The human tumor cell lines of the cancer screening panel were grown in RPMI 1640 medium containing 5% fetal bovine serum and 2 mM L-glutamine.
(§3) Results for the two compounds were reported as a mean graph of the percent growth of the treated cells when compared to the untreated control cells. The results are expressed as cell growth percent for the tested compounds on each of the used NCI cell line panels.
(§4) The human tumor cell lines of the cancer screening panel were grown in RPMI 1640 medium containing 5% fetal bovine serum and 2 mM L-glutamine. For a typical screening experiment, cells are inoculated into 96 well microtiter plates in 100 µL at plating densities ranging from 5,000 to 40,000 cells/well depending on the doubling time of individual cell lines. After cell inoculation, the microtiter plates are incubated at 37° C, 5 % CO2, 95 % air and 100 % relative humidity for 24 hrs prior to addition of experimental drugs. After 24 hrs, two plates of each cell line are fixed in situ with trichloroacetic acid (TCA), to represent a measurement of the cell population for each cell line at the time of drug addition (Tz). Experimental drugs are solubilized in dimethyl sulfoxide at 400-fold the desired final maximum test concentration and stored frozen prior to use. At the time of drug addition, an aliquot of frozen concentrate is thawed and diluted to twice the desired final maximum test concentration with complete medium containing 50 µg/mL gentamicin. Additional four, 10-fold or ½ log serial dilutions are made to provide a total of five drug concentrations plus control. Aliquots of 100 µl of these different drug dilutions are added to the appropriate microtiter wells already containing 100 µl of medium, resulting in the required final drug concentrations.
(§5) Following drug addition, the plates are incubated for an additional 48 hrs at 37°C, 5 % CO2, 95 % air, and 100 % relative humidity. For adherent cells, the assay is terminated by the addition of cold TCA. Cells are fixed in situ by the gentle addition of 50 µl of cold 50 % (w/v) TCA (final concentration, 10 % TCA) and incubated for 60 minutes at 4°C. The supernatant is discarded, and the plates are washed five times with tap water and air dried. Sulforhodamine B (SRB) solution (100 µl) at 0.4 % (w/v) in 1 % acetic acid is added to each well, and plates are incubated for 10 minutes at room temperature. After staining, unbound dye is removed by washing five times with 1 % acetic acid and the plates are air dried. Bound stain is subsequently solubilized with 10 mMtrizma base, and the absorbance is read on an automated plate reader at a wavelength of 515 nm. For suspension cells, the methodology is the same except that the assay is terminated by fixing settled cells at the bottom of the wells by gently adding 50 µl of 80 % TCA (final concentration, 16 % TCA).
(§6) Using the seven absorbance measurements [time zero, (Tz), control growth, (C), and test growth in the presence of drug at the five concentration levels (Ti)], the percentage growth is calculated at each of the drug concentrations levels. Percentage growth inhibition is calculated as: […]

RPMI-8226 = test: NCI in vitro anti-proliferative single dose screen; assay type: cell-based, human; settings: RPMI-8226, single dose of 10 µM
Protocol: as §1, §2, §3, §4, §5, §6

HL-60(TB) = test: NCI in vitro anti-proliferative single dose screen; assay type: cell-based, human; settings: single dose of 10 µM
Protocol: as §1, §2, §3, §4, §5, §6

MOLT-4 = test: NCI in vitro anti-proliferative single dose screen; assay type: cell-based, human; settings: MOLT-4, single dose of 10 µM
Protocol: as §1, §2, §3, §4, §5, §6

CCRF-CEM = test: NCI in vitro anti-proliferative single dose screen; assay type: cell-based, human; settings: single dose of 10 µM
Protocol: as §1, §2, §3, §4, §5, §6

SR = test: NCI in vitro anti-proliferative single dose screen; assay type: cell-based, human; settings: single dose of 10 µM; for Cell growth percent: SR
Protocol: as §1, §2, §3, §4, §5, §6

recombinant BCL-2 = biological target: T1, recombinant BCL-2 (Homo sapiens, UniProt P10415); test: In vitro BCL-2 inhibitory activity, TR-FRET assay (BPS Bioscience); assay type: binding; settings: for IC50: 5 concentrations 1 nM-10 µM
T1 construct: purchased BPS Bioscience 50272
Protocol: The in vitro enzyme inhibition determination for the synthesized compounds was carried out in BPS Bioscience Corporation, San Diego, CA, USA (www.bpsbioscience.com). […] The assay was performed by TR-FRET technology using a recombinant BCL-2 and a peptide- ligand substrate. The TR-FRET signal from the assay is correlated with the amount of Ligand binding to BCL-2. […] All of the binding reactions were conducted at room temperature. […] The reaction mixture incubated for 180 min prior to reading the TR-FRET signal. For the background, ligand was replaced with assay buffer. Fluorescence signals for both the donor and acceptor dyes were measured using a Tecan Infinite M1000 plate reader. TR-FRET was recorded as the ratio of the fluorescence of the acceptor and the donor dyes (acceptor/donor). Binding experiments were performed in duplicate at each concentration. The TR-FRET data were analyzed using the computer software, Graphpad Prism. In the absence of the compound in wells containing BCL-2 ligand, the TR-FRET signal (Ft) in each data set was defined as 100% activity. In wells without peptide ligand, the TR-FRET signal (Fb) in each data set was defined as 0% activity. The percent activity in the presence of each compound was calculated according to the following equation: % activity = [(F − Fb)/ (Ft − Fb)] × 100, where F = the TR-FRET signal in the presence of the compound. The percent inhibition was calculated according to the following equation: % inhibition = 100—% activity. IC50 determination for target compounds against BCL-2 was calculated. […] The IC50 value was determined by the concentration causing a half-maximal percent activity.

BCL-2 = settings: cited from earlier work

T1 sequence (P10415 whole entry): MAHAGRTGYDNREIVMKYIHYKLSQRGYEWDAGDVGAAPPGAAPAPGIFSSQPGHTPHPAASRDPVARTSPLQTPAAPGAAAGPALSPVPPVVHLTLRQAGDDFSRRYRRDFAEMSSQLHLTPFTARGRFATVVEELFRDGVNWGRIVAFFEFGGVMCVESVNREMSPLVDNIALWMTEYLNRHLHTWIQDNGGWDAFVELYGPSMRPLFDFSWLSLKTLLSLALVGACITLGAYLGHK

Compound	inhibition against the used leukemia cell line (in words) (NCI leukemia cell line)	melting point	Cell growth percent (K-562)	Cell growth percent (RPMI-8226)	Cell growth percent (HL-60(TB))	Cell growth percent (MOLT-4)	Cell growth percent (CCRF-CEM)	Cell growth percent (SR)	IC50 (recombinant BCL-2)	inhibition at 10 µM (recombinant BCL-2; single dose of 10 µM)	inhibition at 10 µM (SR; Homo sapiens, leukemic SR cell lines, read-out: growth inhibition)	IC50 (BCL-2)
Cc1ccc(COc2ccc(NC(=O)c3ccc4nc(NC(=O)c5ccc(NCCc6ccccc6)c([N+](=O)[O-])c5)sc4c3)cc2)cc1 [13c, N-(4-((4-Methylbenzyl)oxy)phenyl)-2-(3-nitro-4-(phenethylamino)benzamido)benzo-[d]thiazole-6-carboxamide]	poor inhibition	138 to 140 °C	87.23%	87.5%	75.74%	94.74%	93.91%	82.5%	0.471 µM	84%	–	–
O=C(Nc1ccc(OCc2ccc(C(F)(F)F)cc2)cc1)c1ccc2nc(NC(=O)c3ccc(NCCc4ccccc4)c([N+](=O)[O-])c3)sc2c1 [13d, N-(4-((4-Trifluoromethylbenzyl)oxy)phenyl)-2-(3-nitro-4-(phenethylamino)benzamido)-benzo[d]thiazole-6-carboxamide]	–	218 to 220 °C	67.92%	69.86%	96.87%	74.37%	68.2%	37.13%	0.363 µM	–	62.9%	–
CCCCc1c(-c2ccc(C(=O)NS(=O)(=O)c3ccc4ccccc4c3)cc2C(=O)N2CCc3ccccc3C2)c(CO)nn1-c1ccc(Oc2cccc(Cl)c2)cc1 [Compound 1]	–	42 to 44 °C	–	–	–	–	–	–	–	–	–	0.006 µM
